Results published in PubChem BioAssay (NCI).
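Step 1: Grow cells in 96-well plates. Step 2: Expose to compound for 48 hours at 5 concentrations. Step 3: Interpolate endpoints linearly; if unreached, use highest concentration. TGI is the concentration that stops growth completely.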

Experiments:
Test in all cases: DTP human tumour cell line panel, 48 h
[1] = tested on: M19-MEL melanoma
[2] = tested on: LXFL 529 NSCLC
[3] = tested on: XF 498 CNS
[4] = tested on: SNB-78 CNS
[5] = tested on: HOP-18 NSCLC

SMILES | TGI [1] | TGI [2] | TGI [3] | TGI [4] | TGI [5]
CN(C)CCn1c2ccccc2c2nc3cc4ccccc4cc3nc21 | 21 µM | 17.9 µM | 21.4 µM |  | 
Cc1ccc(C(=O)C(C)N)cc1 (stereo not drawn) |  | > 100 µM | > 100 µM | > 100 µM | > 100 µM
CC(=O)OC12c3ccccc3C1CCCCCC21OCCCO1 (stereo not drawn) | > 100 µM | > 100 µM |  | > 100 µM | 
N=C(N)SCCc1cn2ccccc2n1 | > 100 µM |  | > 100 µM | > 100 µM | > 100 µM
COC(OC)c1cccc2c1C1(O)CCC3(CC21)OCCCCO3 (stereo not drawn) | > 100 µM | > 100 µM |  | > 100 µM | > 100 µM
COc1cc(-c2[nH]ccc2Cl)oc1C1=C2N=C3C=C2C(C(C)C)C1CCCCCCCC3 (stereo not drawn) | 1.59 µM | 1.84 µM | 2.76 µM | 15.5 µM | 2.08 µM
